# Biological target: JAK-2 enzyme (Homo sapiens, UniProt O60674)
# Experiment: JAK2 Inhibition Assay
# Format: biochemical
# Conditions: 15 μM poly(Glu)4Tyr, 12 μM ATP, 25° C.
# Description: (§1) Compounds were screened for their ability to inhibit JAK3 using the assay shown below. Reactions were carried out in a kinase buffer containing 100 mM HEPES (pH 7.4), 1 mM DTT, 10 mM MgCl2, 25 mM NaCl, and 0.01% BSA. Substrate concentrations in the assay were 5 μM ATP (200 uCi/μmole ATP) and 1 μM poly(Glu)4Tyr. Reactions were carried out at 25° C. and 1 nM JAK3.
# (§2) To each well of a 96 well polycarbonate plate was added 1.5 μl of a candidate JAK3 inhibitor along with 50 μl of kinase buffer containing 2 μM poly(Glu)4Tyr and […]. This was then mixed and […] of kinase buffer containing 2 nM JAK3 enzyme was added to start the reaction. After 20 minutes at room temperature (25° C.), the reaction was stopped with 50 μl of 20% trichloroacetic acid (TCA) that also contained 0.4 mM ATP. The entire contents of each well were then transferred to a 96 well glass fiber filter plate using a TomTek Cell Harvester. After washing, 60 μl of scintillation fluid was added and ^33P incorporation detected on a Perkin Elmer TopCount.
# The assays were as described above in Example 36 except that JAK-2 enzyme was used, the final poly(Glu)4Tyr concentration was 15 μM, and final ATP concentration was 12 μM.
# (§3) Tables 5 and 6 depict enzyme inhibition data (Ki) for certain exemplary compounds. Compound numbers in Tables 5 and 6 correspond to those compounds depicted in Tables 1 and 2, respectively.
# Chain of JAK-2 enzyme (O60674 whole entry, species assumed): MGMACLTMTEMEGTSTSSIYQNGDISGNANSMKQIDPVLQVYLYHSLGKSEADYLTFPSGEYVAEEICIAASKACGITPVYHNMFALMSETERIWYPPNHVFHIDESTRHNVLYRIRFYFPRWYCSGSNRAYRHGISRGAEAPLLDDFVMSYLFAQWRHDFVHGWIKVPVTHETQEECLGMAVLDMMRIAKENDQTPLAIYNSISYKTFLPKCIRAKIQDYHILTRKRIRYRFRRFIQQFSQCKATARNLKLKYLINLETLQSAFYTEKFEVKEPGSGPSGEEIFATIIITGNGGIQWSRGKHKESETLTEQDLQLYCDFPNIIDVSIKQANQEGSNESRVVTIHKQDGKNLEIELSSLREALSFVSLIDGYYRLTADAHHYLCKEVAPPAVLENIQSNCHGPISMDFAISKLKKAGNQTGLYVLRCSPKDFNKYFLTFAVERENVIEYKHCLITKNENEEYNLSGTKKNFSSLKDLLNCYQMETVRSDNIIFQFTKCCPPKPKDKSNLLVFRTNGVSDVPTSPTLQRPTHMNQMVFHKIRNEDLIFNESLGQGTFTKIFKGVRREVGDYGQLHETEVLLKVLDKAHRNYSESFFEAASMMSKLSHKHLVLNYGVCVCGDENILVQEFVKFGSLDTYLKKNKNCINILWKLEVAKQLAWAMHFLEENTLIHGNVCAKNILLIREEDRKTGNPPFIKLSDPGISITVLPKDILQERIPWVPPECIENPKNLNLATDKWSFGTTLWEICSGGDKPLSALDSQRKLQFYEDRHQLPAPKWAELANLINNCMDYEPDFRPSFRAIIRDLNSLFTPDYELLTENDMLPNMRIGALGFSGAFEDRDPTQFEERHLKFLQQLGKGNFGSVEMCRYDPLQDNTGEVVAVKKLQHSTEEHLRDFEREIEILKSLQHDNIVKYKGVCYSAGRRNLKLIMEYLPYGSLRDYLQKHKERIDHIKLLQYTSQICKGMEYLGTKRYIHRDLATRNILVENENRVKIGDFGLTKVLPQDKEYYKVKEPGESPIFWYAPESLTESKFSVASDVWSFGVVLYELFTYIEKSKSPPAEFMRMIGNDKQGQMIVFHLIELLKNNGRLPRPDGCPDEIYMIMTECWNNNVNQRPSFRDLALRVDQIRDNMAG
row,Ki,Structure (SMILES)
1,0.1 to 0.5 µM,c1nc(-c2ccsc2)c2cc[nH]c2n1 [Compound 2]
2,0.1 to 0.5 µM,Cn1cc(-c2ncnc3[nH]ccc23)cn1 [Compound 3]
3,0.5 to 5 µM,c1cc(-c2ncnc3[nH]ccc23)[nH]n1 [Compound 4]
4,0.1 to 0.5 µM,c1nc(-c2cn[nH]c2)c2cc[nH]c2n1 [Compound 5]
5,< 0.1 µM,CC(C)NC(=O)c1cc(-c2ncnc3[nH]ccc23)c[nH]1 [Compound 8]
6,< 0.1 µM,CC(C)CNC(=O)c1cc(-c2ncnc3[nH]ccc23)c[nH]1 [Compound 9]
7,< 0.1 µM,O=C(NC1CC1)c1cc(-c2ncnc3[nH]ccc23)c[nH]1 [Compound 12]
8,< 0.1 µM,C#CCNC(=O)c1cc(-c2ncnc3[nH]ccc23)c[nH]1 [Compound 14]
9,< 0.1 µM,N#CCNC(=O)c1cc(-c2ncnc3[nH]ccc23)c[nH]1 [Compound 15]
10,< 0.1 µM,C#CCN(C)C(=O)c1cc(-c2ncnc3[nH]ccc23)c[nH]1 [Compound 24]

# Continued, compound first:
row,Structure (SMILES),Ki
1,FC(F)(F)CCCn1cc(-c2ncnc3[nH]ccc23)cn1 [Compound 6],< 0.1 µM
2,O=C(NCC(F)(F)F)c1cc(-c2ncnc3[nH]ccc23)c[nH]1 [Compound 7],< 0.1 µM
3,O=C(NCC(F)F)c1cc(-c2ncnc3[nH]ccc23)c[nH]1 [Compound 10],< 0.1 µM
4,CCC(CC)NC(=O)c1cc(-c2ncnc3[nH]ccc23)c[nH]1 [Compound 11],< 0.1 µM
5,O=C(NC1CCCC1)c1cc(-c2ncnc3[nH]ccc23)c[nH]1 [Compound 13],< 0.1 µM
6,CCN(CCC#N)C(=O)c1cc(-c2ncnc3[nH]ccc23)c[nH]1 [Compound 16],< 0.1 µM
7,C=CCN(CC=C)C(=O)c1cc(-c2ncnc3[nH]ccc23)c[nH]1 [Compound 17],< 0.1 µM
8,N#CCCN(Cc1cccnc1)C(=O)c1cc(-c2ncnc3[nH]ccc23)c[nH]1 [Compound 18],< 0.1 µM
9,CCCCN(CC#N)C(=O)c1cc(-c2ncnc3[nH]ccc23)c[nH]1 [Compound 19],< 0.1 µM
10,CCCN(CC1CC1)C(=O)c1cc(-c2ncnc3[nH]ccc23)c[nH]1 [Compound 20],< 0.1 µM
11,CCCN(CCC#N)C(=O)c1cc(-c2ncnc3[nH]ccc23)c[nH]1 [Compound 21],< 0.1 µM
12,CCCCN(CCC#N)C(=O)c1cc(-c2ncnc3[nH]ccc23)c[nH]1 [Compound 22],< 0.1 µM
13,CN(CCC#N)C(=O)c1cc(-c2ncnc3[nH]ccc23)c[nH]1 [Compound 23],< 0.1 µM
14,COCCN(CCOC)C(=O)c1cc(-c2ncnc3[nH]ccc23)c[nH]1 [Compound 25],< 0.1 µM
15,CCCN(CCC)C(=O)c1cc(-c2ncnc3[nH]ccc23)c[nH]1 [Compound 26],< 0.1 µM
16,CC(C)CN(C)C(=O)c1cc(-c2ncnc3[nH]ccc23)c[nH]1 [Compound 27],< 0.1 µM
17,CC(C)CN(CC(C)C)C(=O)c1cc(-c2ncnc3[nH]ccc23)c[nH]1 [Compound 28],< 0.1 µM
18,N#CCCN(Cc1ccccc1)C(=O)c1cc(-c2ncnc3[nH]ccc23)c[nH]1 [Compound 29],< 0.1 µM

# Biological target: T1, JAK3 (Homo sapiens, UniProt P52333)
# T1 sequence (P52333 1-1124): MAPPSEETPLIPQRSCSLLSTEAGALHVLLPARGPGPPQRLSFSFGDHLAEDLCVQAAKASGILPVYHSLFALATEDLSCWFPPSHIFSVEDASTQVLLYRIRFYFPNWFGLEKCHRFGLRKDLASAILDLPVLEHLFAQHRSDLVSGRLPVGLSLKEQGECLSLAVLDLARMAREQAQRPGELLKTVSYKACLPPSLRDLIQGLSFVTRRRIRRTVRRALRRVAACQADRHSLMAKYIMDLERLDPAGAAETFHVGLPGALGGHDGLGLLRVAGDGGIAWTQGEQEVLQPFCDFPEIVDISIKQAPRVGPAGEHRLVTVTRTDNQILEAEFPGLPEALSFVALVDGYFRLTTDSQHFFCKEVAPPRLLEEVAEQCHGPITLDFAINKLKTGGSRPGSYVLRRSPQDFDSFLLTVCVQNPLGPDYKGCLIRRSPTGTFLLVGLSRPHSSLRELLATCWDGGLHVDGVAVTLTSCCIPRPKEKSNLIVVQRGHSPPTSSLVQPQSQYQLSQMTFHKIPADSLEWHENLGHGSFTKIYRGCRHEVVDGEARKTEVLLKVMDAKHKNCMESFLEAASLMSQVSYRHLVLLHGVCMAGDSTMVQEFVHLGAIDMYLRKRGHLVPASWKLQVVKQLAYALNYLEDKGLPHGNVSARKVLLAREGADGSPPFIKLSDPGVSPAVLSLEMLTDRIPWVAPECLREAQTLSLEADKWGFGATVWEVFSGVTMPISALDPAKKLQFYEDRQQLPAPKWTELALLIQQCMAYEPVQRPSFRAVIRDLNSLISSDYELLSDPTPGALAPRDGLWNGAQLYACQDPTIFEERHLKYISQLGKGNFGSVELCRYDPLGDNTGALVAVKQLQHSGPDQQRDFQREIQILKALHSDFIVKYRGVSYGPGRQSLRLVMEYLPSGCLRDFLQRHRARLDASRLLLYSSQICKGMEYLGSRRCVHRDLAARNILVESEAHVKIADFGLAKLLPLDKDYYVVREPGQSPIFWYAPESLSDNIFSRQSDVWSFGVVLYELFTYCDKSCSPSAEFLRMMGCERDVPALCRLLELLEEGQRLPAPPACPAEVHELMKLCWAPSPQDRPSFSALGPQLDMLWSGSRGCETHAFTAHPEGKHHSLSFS
# Experiment: JAK3 Inhibition Assay
# Format: biochemical
# Conditions: 1 μM poly(Glu)4Tyr, 5 μM ATP, 1 nM JAK3, 25° C.; read-out: JAK3 enzyme inhibition data (Ki)
# Description: as §1, §2, §3
row,Ki,Structure (SMILES)
1,0.1 to 0.5 µM,c1nc(-c2ccsc2)c2cc[nH]c2n1 [Compound 2]
2,0.1 to 0.5 µM,Cn1cc(-c2ncnc3[nH]ccc23)cn1 [Compound 3]
3,0.1 to 0.5 µM,c1cc(-c2ncnc3[nH]ccc23)[nH]n1 [Compound 4]
4,0.1 to 0.5 µM,c1nc(-c2cn[nH]c2)c2cc[nH]c2n1 [Compound 5]
5,0.1 to 0.5 µM,CC(C)NC(=O)c1cc(-c2ncnc3[nH]ccc23)c[nH]1 [Compound 8]
6,< 0.1 µM,CC(C)CNC(=O)c1cc(-c2ncnc3[nH]ccc23)c[nH]1 [Compound 9]
7,0.1 to 0.5 µM,O=C(NC1CC1)c1cc(-c2ncnc3[nH]ccc23)c[nH]1 [Compound 12]
8,0.1 to 0.5 µM,C#CCNC(=O)c1cc(-c2ncnc3[nH]ccc23)c[nH]1 [Compound 14]
9,< 0.1 µM,N#CCNC(=O)c1cc(-c2ncnc3[nH]ccc23)c[nH]1 [Compound 15]
10,0.1 to 0.5 µM,C#CCN(C)C(=O)c1cc(-c2ncnc3[nH]ccc23)c[nH]1 [Compound 24]

# Further lines, the compound ahead of its results:
row,Structure (SMILES),Ki
1,FC(F)(F)CCCn1cc(-c2ncnc3[nH]ccc23)cn1 [Compound 6],0.1 to 0.5 µM
2,O=C(NCC(F)(F)F)c1cc(-c2ncnc3[nH]ccc23)c[nH]1 [Compound 7],< 0.1 µM
3,O=C(NCC(F)F)c1cc(-c2ncnc3[nH]ccc23)c[nH]1 [Compound 10],< 0.1 µM
4,CCC(CC)NC(=O)c1cc(-c2ncnc3[nH]ccc23)c[nH]1 [Compound 11],0.1 to 0.5 µM
5,O=C(NC1CCCC1)c1cc(-c2ncnc3[nH]ccc23)c[nH]1 [Compound 13],< 0.1 µM
6,CCN(CCC#N)C(=O)c1cc(-c2ncnc3[nH]ccc23)c[nH]1 [Compound 16],< 0.1 µM
7,C=CCN(CC=C)C(=O)c1cc(-c2ncnc3[nH]ccc23)c[nH]1 [Compound 17],< 0.1 µM
8,N#CCCN(Cc1cccnc1)C(=O)c1cc(-c2ncnc3[nH]ccc23)c[nH]1 [Compound 18],< 0.1 µM
9,CCCCN(CC#N)C(=O)c1cc(-c2ncnc3[nH]ccc23)c[nH]1 [Compound 19],< 0.1 µM
10,CCCN(CC1CC1)C(=O)c1cc(-c2ncnc3[nH]ccc23)c[nH]1 [Compound 20],< 0.1 µM
11,CCCN(CCC#N)C(=O)c1cc(-c2ncnc3[nH]ccc23)c[nH]1 [Compound 21],< 0.1 µM
12,CCCCN(CCC#N)C(=O)c1cc(-c2ncnc3[nH]ccc23)c[nH]1 [Compound 22],< 0.1 µM
13,CN(CCC#N)C(=O)c1cc(-c2ncnc3[nH]ccc23)c[nH]1 [Compound 23],< 0.1 µM
14,COCCN(CCOC)C(=O)c1cc(-c2ncnc3[nH]ccc23)c[nH]1 [Compound 25],0.1 to 0.5 µM
15,CCCN(CCC)C(=O)c1cc(-c2ncnc3[nH]ccc23)c[nH]1 [Compound 26],< 0.1 µM
16,CC(C)CN(C)C(=O)c1cc(-c2ncnc3[nH]ccc23)c[nH]1 [Compound 27],0.1 to 0.5 µM
17,CC(C)CN(CC(C)C)C(=O)c1cc(-c2ncnc3[nH]ccc23)c[nH]1 [Compound 28],0.1 to 0.5 µM
18,N#CCCN(Cc1ccccc1)C(=O)c1cc(-c2ncnc3[nH]ccc23)c[nH]1 [Compound 29],< 0.1 µM

# From patent US20090227607A1, “DEAZAPURINES USEFUL AS INHIBITORS OF JANUS KINASES” (priority 2006, published 2009)
